Results as given in patent EP4707280A1, “1,4-CINEOLE DERIVATIVE AND INTERMEDIATE THEREOF, HERBICIDE CONTAINING SAID DERIVATIVE AS ACTIVE INGREDIENT, METHOD FOR USING HERBICIDE, AND METHOD FOR PREPARING AGROCHEMICAL COMPOSITION” (HOKKO CHEMICAL INDUSTRY CO., LTD., priority 2023, dated 2024).

Assays:
Type in all cases: in vivo
Echinochloa crus-galli [1] = experiment: Test Example 3: herbicidal effect test by soil application in upland field; settings: 120 g per 10 ares, sprayed one day after sowing, 14 days after application; for inhibition at 1200 g/ha: Echinochloa crus-galli, read-out: weed inhibition rate
In short: (§1)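 Pre-emergence test: seeds mixed into top 1 cm of alluvial loam upland soil in pots; emulsifiable concentrate diluted in water sprayed on soil one day after sowing at 100 L/10 a, 120 g a.i./10 a. Weed inhibition rate (%) scored at 14 days, in duplicate.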

Digitaria ciliaris [2] = experiment: as above; settings: 120 g per 10 ares, sprayed one day after sowing, 14 days after application; for inhibition at 1200 g/ha: Digitaria ciliaris, read-out: weed inhibition rate
In short: as §1

Echinochloa crus-galli [3] = experiment: Test Example 4: herbicidal effect test by stem and leaf treatment in upland field; settings: 120 g per 10 ares, sprayed seven days after sowing, upland soil, 14 days after application; for inhibition at 1200 g/ha: Echinochloa crus-galli, read-out: weed inhibition rate
[4] = tested on: Echinochloa crus-galli var. formosensis; experiment: Test Example 1: herbicidal effect test by soil application in paddy rice; settings: 120 g active ingredient per 10 ares, applied immediately after sowing, flooded pots, 14 days after application; for pest or weed control at 1200 g/ha: Echinochloa crus-galli, soil, 336 h, read-out: weed inhibition rate
In short: (§2)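 Paddy soil in Wagner pots (1/10,000 acre), fertilized and puddled; 30 seeds per species sown at 0–1 cm, flooded to ~3 cm, greenhouse. Water-diluted emulsifiable concentrate dropped onto flooded pots right after sowing at 120 g active ingredient per 10 ares.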

Scirpus juncoides [5] = experiment: as above; settings: 120 g active ingredient per 10 ares, applied immediately after sowing, flooded pots, 14 days after application; for pest or weed control at 1200 g/ha: Schoenoplectiella juncoides, soil, 336 h, read-out: weed inhibition rate
In short: as §2

Digitaria ciliaris [6] = experiment: Test Example 4: herbicidal effect test by stem and leaf treatment in upland field; settings: 120 g per 10 ares, sprayed seven days after sowing, upland soil, 14 days after application; for inhibition at 1200 g/ha: Digitaria ciliaris, read-out: weed inhibition rate
[7] = tested on: Echinochloa crus-galli var. formosensis; experiment: Test Example 6: herbicidal effect test by application during growth period of paddy rice (low dose); settings: 7.5 g per 10 ares, applied seven days after sowing, flooded pots, 14 days after application; for inhibition at 75 g/ha: Echinochloa crus-galli, read-out: weed inhibition rate
In short: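 Paddy-soil pots, flooded ~3 cm after sowing weed seeds at 0-1 cm depth, greenhouse-grown. Seven days after sowing, diluted emulsifiable concentrate applied by dropper at 7.5 g active ingredient per 10 ares. Weed inhibition rate (%) scored 14 days after application, in duplicate.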

Monochoria vaginalis [8] = experiment: Test Example 2: herbicidal effect test by application during growth period of paddy rice; settings: 120 g per 10 ares, applied seven days after sowing, flooded pots, 14 days after application; for inhibition at 1200 g/ha: Pontederia vaginalis, read-out: weed inhibition rate
In short: (§3)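 Paddy soil in Wagner pots was puddled with N:P:K 16:16:16 fertilizer, sown with 30 weed seeds per species at 0–1 cm and flooded to about 3 cm. Seven days after sowing, a water-diluted emulsifiable concentrate was dropped onto the water at 120 g active ingredient per 10 ares. Weed inhibition (%) was scored at 14 days, in duplicate.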

[9] = tested on: Echinochloa crus-galli var. formosensis; experiment: as above; settings: 120 g per 10 ares, applied seven days after sowing, flooded pots, 14 days after application; for inhibition at 1200 g/ha: Echinochloa crus-galli, read-out: weed inhibition rate
In short: as §3

Scirpus juncoides [10] = experiment: as above; settings: 120 g per 10 ares, applied seven days after sowing, flooded pots, 14 days after application; for inhibition at 1200 g/ha: Schoenoplectiella juncoides, read-out: weed inhibition rate
In short: as §3

Monochoria vaginalis [11] = experiment: Test Example 1: herbicidal effect test by soil application in paddy rice; settings: 120 g active ingredient per 10 ares, applied immediately after sowing, flooded pots, 14 days after application; for pest or weed control at 1200 g/ha: Pontederia vaginalis, soil, 336 h, read-out: weed inhibition rate
Experimental: Wagner pots with an area of […] were filled with paddy soil, followed by addition of water and incorporation of chemical fertilizer (N:P:K = 16:16:16), after which puddling was performed. After that, seeds of Echinochloa crus-galli var. formosensis, broad-leaved weeds (Lindernia pyxidaria and Monochoria vaginalis), and Scirpus juncoides were sown at a depth of 0 cm to 1 cm, 30 seeds each. Immediately after sowing, the pots were flooded and a water depth of approximately 3 cm was maintained. Subsequent management was conducted in a glass greenhouse. Immediately thereafter, an emulsifiable concentrate prepared according to Formulation Example 5 using the compound shown below was diluted with water, and a specified amount of the diluted solution was applied by dropper. The amount of the active ingredient to be applied was equivalent to 120 g per 10 ares.
The present test was conducted in duplicate for each chemical concentration group, and the weed inhibition rate (%) was determined 14 days after chemical application using the following formula (Math. 1). [formula]

[12] = tested on: Echinochloa crus-galli var. formosensis; experiment: Test Example 5: herbicidal effect test by soil application in paddy rice (low dose); settings: 7.5 g per 10 ares, applied immediately after sowing, flooded pots, 14 days after application; for inhibition at 75 g/ha: Echinochloa crus-galli, soil, 336 h, read-out: weed inhibition rate
In short: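 Paddy soil in Wagner pots was fertilized (N:P:K 16:16:16), puddled, sown with 30 seeds per weed species at 0–1 cm, then flooded to ~3 cm in a glass greenhouse. Emulsifiable concentrate diluted in water was dropper-applied into floodwater immediately, at 7.5 g active ingredient per 10 ares; duplicates, scored at 14 days.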

Echinochloa crus-galli [13] = experiment: Test Example 7: herbicidal effect test by soil application in upland field (low dose); settings: 7.5 g per 10 ares, sprayed one day after sowing, 14 days after application
In short: (§4)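 Pre-emergence soil application: upland alluvial loam pots sown with weed seeds mixed into the top 1 cm; one day after sowing, a water-diluted emulsifiable concentrate was sprayed on the soil at 100 L per 10 a, delivering 7.5 g active ingredient per 10 a. Weed inhibition rate (%) scored 14 days after application, duplicate pots.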

Digitaria ciliaris [14] = experiment: as above; settings: 7.5 g per 10 ares, sprayed one day after sowing, 14 days after application
In short: as §4

Digitaria ciliaris [15] = experiment: Test Example 8: herbicidal effect test by stem and leaf treatment in upland field (low dose); settings: 7.5 g per 10 ares, sprayed seven days after sowing, upland soil, 14 days after application
Echinochloa crus-galli [16] = experiment: as above; settings: 7.5 g per 10 ares; sprayed seven days after sowing, upland soil; 14 days after application
[17] = Digitaria ciliaris, read-out: weed inhibition rate

CC(C)[C@]12C[C@@H](OCc3ccccc3F)[C@](C)(C=C1c1ccccc1)O2 [3-177, (1R,4S,5R)-5-((2-fluorobenzyl)oxy)-1-isopropyl-4-methyl-2-phenyl-7-oxabicyclo[2.2.1]hept-2-ene]
≥ 80%: inhibition at 1200 g/ha (Echinochloa crus-galli [1]) | inhibition at 1200 g/ha (Digitaria ciliaris [2]) | inhibition at 1200 g/ha (Echinochloa crus-galli [3]) | pest or weed control at 1200 g/ha [4] | pest or weed control at 1200 g/ha (Scirpus juncoides [5]) | inhibition at 1200 g/ha (Digitaria ciliaris [6]) | inhibition at 75 g/ha [7] | inhibition at 1200 g/ha (Monochoria vaginalis [8]) | inhibition at 1200 g/ha [9] | inhibition at 1200 g/ha (Scirpus juncoides [10]) | pest or weed control at 1200 g/ha (Monochoria vaginalis [11])

CC(C)[C@]12C[C@@H](OCc3ccccc3F)[C@](C)(CC13OCCO3)O2 [1-936, (1R,4S,5R)-5-((2-fluorobenzyl)oxy)-1-isopropyl-4-methyl-7-oxaspiro[bicyclo[2.2.1]heptane-2,2'-[1,3]dioxolane]]
≥ 80%: inhibition at 1200 g/ha (Echinochloa crus-galli [1]) | inhibition at 1200 g/ha (Digitaria ciliaris [2]) | inhibition at 1200 g/ha (Echinochloa crus-galli [3]) | pest or weed control at 1200 g/ha [4] | pest or weed control at 1200 g/ha (Scirpus juncoides [5]) | inhibition at 1200 g/ha [9] | pest or weed control at 1200 g/ha (Monochoria vaginalis [11])

CC(C)[C@]12C[C@@H](OCc3ccccc3C#N)[C@](C)(CC1=O)O2 [2-354, 2-((((1S,2R,4R)-4-isopropyl-1-methyl-5-oxo-7-oxabicyclo[2.2.1]heptan-2-yl)oxy)methyl)benzonitrile]
≥ 80%: inhibition at 1200 g/ha (Echinochloa crus-galli [1]) | inhibition at 1200 g/ha (Digitaria ciliaris [2]) | inhibition at 1200 g/ha (Echinochloa crus-galli [3]) | pest or weed control at 1200 g/ha [4] | pest or weed control at 1200 g/ha (Scirpus juncoides [5]) | inhibition at 1200 g/ha (Digitaria ciliaris [6]) | inhibition at 75 g/ha [7] | inhibition at 75 g/ha [12] | inhibition at 1200 g/ha [9] | inhibition at 1200 g/ha (Scirpus juncoides [10]) | pest or weed control at 1200 g/ha (Monochoria vaginalis [11]) | inhibition at 75 g/ha (Echinochloa crus-galli [13]; Echinochloa crus-galli, read-out: weed inhibition rate) | inhibition at 75 g/ha (Digitaria ciliaris [14]; [17])

CCC[C@@H]1C[C@]2(C)O[C@@]1(C(C)C)C[C@H]2OCc1ccccc1F [1-914, (1S,2R,4R,5R)-2-[(2-fluorophenyl)methoxy]-1-methyl-4-isopropyl-5-propyl-7-oxabicyclo[2.2.1]heptane]
≥ 80%: inhibition at 1200 g/ha (Echinochloa crus-galli [1]) | inhibition at 1200 g/ha (Digitaria ciliaris [2]) | inhibition at 1200 g/ha (Echinochloa crus-galli [3]) | pest or weed control at 1200 g/ha [4] | pest or weed control at 1200 g/ha (Scirpus juncoides [5]) | inhibition at 1200 g/ha (Digitaria ciliaris [6]) | inhibition at 75 g/ha [7] | inhibition at 75 g/ha [12] | inhibition at 1200 g/ha (Monochoria vaginalis [8]) | inhibition at 1200 g/ha [9] | inhibition at 1200 g/ha (Scirpus juncoides [10]) | pest or weed control at 1200 g/ha (Monochoria vaginalis [11])

Cc1ccccc1CO[C@H]1C[C@]2(C)O[C@@]1(C(C)C)C[C@H]2OCc1ccccc1C [1-597, (1S,2R,4R,5S)-1-methyl-2,5-bis[(2-methylphenyl)methoxy]-4-isopropyl-7-oxabicyclo[2.2.1]heptane]
≥ 80%: inhibition at 1200 g/ha (Echinochloa crus-galli [3]) | pest or weed control at 1200 g/ha [4] | pest or weed control at 1200 g/ha (Scirpus juncoides [5]) | inhibition at 1200 g/ha (Digitaria ciliaris [6]) | inhibition at 1200 g/ha (Monochoria vaginalis [8]) | inhibition at 1200 g/ha [9] | inhibition at 1200 g/ha (Scirpus juncoides [10]) | pest or weed control at 1200 g/ha (Monochoria vaginalis [11])

CC(C)[C@]12C[C@@H](OCc3ccccc3F)[C@](C)(CC1CCc1ccccc1)O2 (stereo partly drawn) [1-929, (1S,2R,4R)-2-((2-fluorobenzyl)oxy)-4-isopropyl-1-methyl-5-phenethyl-7-oxabicyclo[2.2.1]heptane]
≥ 80%: inhibition at 1200 g/ha (Echinochloa crus-galli [1]) | inhibition at 1200 g/ha (Digitaria ciliaris [2]) | inhibition at 75 g/ha (Digitaria ciliaris [15]; [17]) | inhibition at 1200 g/ha (Echinochloa crus-galli [3]) | pest or weed control at 1200 g/ha [4] | pest or weed control at 1200 g/ha (Scirpus juncoides [5]) | inhibition at 1200 g/ha (Digitaria ciliaris [6]) | inhibition at 75 g/ha [7] | inhibition at 75 g/ha [12] | inhibition at 1200 g/ha (Monochoria vaginalis [8]) | inhibition at 1200 g/ha [9] | pest or weed control at 1200 g/ha (Monochoria vaginalis [11])

CC(C)[C@]12C[C@@H](OCc3ccccc3)[C@](C)(CC1=O)O2 [2-1, (1R,4S,5R)-5-(benzyloxy)-1-isopropyl-4-methyl-7-oxabicyclo[2.2.1]heptan-2-one]
≥ 80%: inhibition at 1200 g/ha (Echinochloa crus-galli [1]) | inhibition at 1200 g/ha (Digitaria ciliaris [2]) | inhibition at 1200 g/ha (Echinochloa crus-galli [3]) | pest or weed control at 1200 g/ha [4] | inhibition at 1200 g/ha (Digitaria ciliaris [6]) | inhibition at 1200 g/ha (Monochoria vaginalis [8]) | inhibition at 1200 g/ha [9] | pest or weed control at 1200 g/ha (Monochoria vaginalis [11])

CC(C)[C@]12C[C@@H](OCc3ccccc3F)[C@](C)(CC1C1CCCC1)O2 (stereo partly drawn) [1-920, (1R,4S,5R)-2-cyclopentyl-5-[(2-fluorobenzyl)oxy]-1-isopropyl-4-methyl-7-oxabicyclo[2.2.1]heptane]
≥ 80%: inhibition at 1200 g/ha (Echinochloa crus-galli [3]) | pest or weed control at 1200 g/ha [4] | pest or weed control at 1200 g/ha (Scirpus juncoides [5]) | inhibition at 1200 g/ha (Digitaria ciliaris [6]) | inhibition at 75 g/ha [7] | inhibition at 75 g/ha [12] | inhibition at 1200 g/ha (Monochoria vaginalis [8]) | inhibition at 1200 g/ha [9] | inhibition at 1200 g/ha (Scirpus juncoides [10]) | pest or weed control at 1200 g/ha (Monochoria vaginalis [11])

CC(C)[C@]12C[C@@H](OCc3ccccc3F)[C@](C)(C[C@@H]1Cl)O2 [1-12]
≥ 80%: weed inhibition rate (Echinochloa crus-galli [1]) | weed inhibition rate (Digitaria ciliaris [2]) | weed inhibition rate (Echinochloa crus-galli [16]) | weed inhibition rate (Digitaria ciliaris [15]) | weed inhibition rate (Echinochloa crus-galli [3]) | weed inhibition rate [4] | weed inhibition rate (Scirpus juncoides [5]) | weed inhibition rate (Digitaria ciliaris [6]) | weed inhibition rate [7] | weed inhibition rate [12] | weed inhibition rate (Monochoria vaginalis [8]) | weed inhibition rate [9] | weed inhibition rate (Scirpus juncoides [10]) | weed inhibition rate (Monochoria vaginalis [11]) | weed inhibition rate (Echinochloa crus-galli [13]) | weed inhibition rate (Digitaria ciliaris [14])

Cc1ccccc1CO[C@@H]1C[C@]2(C(C)C)O[C@@]1(C)C=C2c1ccccc1 [3-175, (1R,4S,5R)-1-isopropyl-4-methyl-5-((2-methylbenzyl)oxy)-2-phenyl-7-oxabicyclo[2.2.1]hept-2-ene]
≥ 80%: inhibition at 1200 g/ha (Echinochloa crus-galli [1]) | inhibition at 1200 g/ha (Digitaria ciliaris [2]) | inhibition at 1200 g/ha (Echinochloa crus-galli [3]) | pest or weed control at 1200 g/ha [4] | inhibition at 1200 g/ha (Digitaria ciliaris [6]) | inhibition at 1200 g/ha (Monochoria vaginalis [8]) | inhibition at 1200 g/ha [9] | pest or weed control at 1200 g/ha (Monochoria vaginalis [11])
